Assay results: patent US12075788B2, “Antimicrobial nano-emulsion” (Laboratoire M2, priority 2019, dated 2024)

Legend:
[1] = Rats fed 300 mg per day; cited from earlier work
[2] = concentration similar to body care products; cited from earlier work
[3] = cited from earlier work
[4] = tested on: Erwinia amylovora streptomycin sensitive strain (435s); test: Detached apple flower assay for fire blight blossom infection, streptomycin sensitive strain; type: in vivo; settings: Streptomycin 17 0.6 g/L; 7 days after inoculation; FIG. 12
Procedure: (§1) Refrigerated dormant 2-year potted apple trees (cv Gala) were forced to bloom at room temperature in late March 2019. Fresh individual flowers were handpicked as they bloomed and placed in small vials containing 10% sucrose, ensuring their pedicels were submerged. The vials were inserted in racks that were placed in small air-tight boxes for incubation at 25° C. A thin layer of a glycerol water solution (33% w/w) in each box maintained constant humidity. Flowers were individually inoculated directly in the hypanthium with 10 μL of a 10^5 CFU/mL suspension of Erwinia amylovora in PBS with Tween 20 at 0.1% w/w. Half the flowers were inoculated with a streptomycin resistant strain (1535m5) collected in Oregon, USA, and the other half with a local streptomycin sensitive strain (435s). […] Approximately 30 minutes after inoculation, 10 randomly selected individual flowers of each strain organized in 5 blocks were flooded with 32 μL of each treatment. […] Severity scores excluding streptomycin treated flowers were analyzed with a cumulative link mixed model (clmm) in the “ordinal” package of R(Christensen 2015) using blocks as a random effect. Because of separation, data with streptomycin were analyzed with the “bract” function of the package “brglm2” under R using mean bias reduction (Kosmidis, Pagui, and Sartori 2019). […]

[5] = tested on: Erwinia amylovora streptomycin resistant strain (1535m5); test: Detached apple flower assay for fire blight blossom infection, streptomycin resistant strain; type: in vivo; settings: Streptomycin 17 0.6 g/L; 7 days after inoculation; FIG. 12
Procedure: as §1

Compound | effects of feeding [1] | irritation and sensitization [2] | acceptable daily intake ([3]; European Food Safety Authority (EFSA)) | maximum acceptable daily intake for humans ([3]; USA) | effect on fire blight on flowers [4] | effect on fire blight on flowers [5]
C/C=C/C=C/C(=O)[O-].[K+] [potassium sorbate] | no observed deleterious effects | practically non-irritating and non-sensitizing | 3 mg per kg of body weight per day | 25 mg per kg of body weight per day |  | 
[H]/N=C(/N)N[C@H]1[C@H](O)[C@@H](O)[C@H](O[C@@H]2O[C@@H](C)[C@](O)(C=O)[C@H]2O[C@@H]2O[C@@H](CO)[C@H](O)[C@@H](O)[C@@H]2NC)[C@@H](N/C(N)=N\[H])[C@@H]1O [streptomycin] |  |  |  |  | strongly inhibited fire blight | no effect
